Among the test systems are ACHN renal; DU-145 prostate; SW-620 colon; OVCAR-3 ovarian; TK-10 renal; KM12 colon; NCI/ADR-RES ovarian; NCI-H226 lung; HOP-62 NSCLC; T-47D breast.
What all share (test): DTP human tumour cell line panel, 48 h

Molecules are shown by their SMILES. “And” between values parts separate entries of the source, which are not always exact repeats. Identical values can stand only once.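 Five concentrations, 48 hours, 96-well plates. The concentration for 50% growth inhibition is given as GI50. TGI marks complete inhibition of growth.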 A value given as a limit tells only on which side of the number the result lay.

Broadly, the GI50 is the concentration that inhibits growth by half. A word on the TGI: it is the concentration giving total growth inhibition. Read a high TGI as lower sensitivity of the cells. `CSc1ccc(-c2cn3ccsc3n2)cc1`: the GI50 was 5.84 µM with ACHN renal; 9.07 µM in the test with DU-145 prostate; 14.6 µM in the test with SW-620 colon; greater than 28.6 µM in the test on OVCAR-3 ovarian; 18 µM in the test with TK-10 renal; 24.4 µM in the test on KM12 colon. Besides, the GI50 with NCI/ADR-RES ovarian is 26.4 µM; with NCI-H226 lung, 24.8 µM; with HOP-62 NSCLC, 34.6 µM; in the test on T-47D breast, 8.53 µM. Besides, the total growth inhibition concentration (TGI) in the test on ACHN renal is greater than 100 µM; with DU-145 prostate it was greater than 100 µM; in the test with SW-620 colon it was greater than 100 µM; with OVCAR-3 ovarian it was greater than 100 µM; in the test with TK-10 renal, greater than 84.7 µM; in the test on KM12 colon it was greater than 100 µM. In addition, the TGI in the test on NCI/ADR-RES ovarian is greater than 100 µM; with NCI-H226 lung, 98.1 µM; in the test with HOP-62 NSCLC, greater than 100 µM; in the test with T-47D breast it was greater than 100 µM.
Regarding `COc1cc2c(c3oc4c(O)cccc4c(=O)c13)CC(C(C)(O)CCl)O2` (stereo not given), the TGI was 1.87 µM with ACHN renal; 10.3 µM in the test on DU-145 prostate; 3.74 µM in the test on SW-620 colon; 7.43 µM in the test on OVCAR-3 ovarian; 41.8 µM with TK-10 renal; 4.56 µM in the test with KM12 colon. Besides, the TGI in the test with NCI/ADR-RES ovarian is 11.9 µM; in the test on NCI-H226 lung, 24.2 µM; with HOP-62 NSCLC, 5.85 µM; with T-47D breast, 13.5 µM.
For `COc1ccc(/C(=C(\c2ccccc2)[N+](=O)[O-])c2ccc(OCCN3CCCC3)cc2)cc1`, the GI50 in the test with ACHN renal was 6.32 µM; with DU-145 prostate, 9.52 µM; in the test with SW-620 colon, 1.74 µM; with OVCAR-3 ovarian, 3.93 µM; in the test with TK-10 renal, 5.17 µM; in the test on KM12 colon, 2.16 µM. Moreover, the GI50 with NCI/ADR-RES ovarian is 8.41 µM; in the test with NCI-H226 lung, 4.37 µM; in the test with HOP-62 NSCLC, 1.89 µM; in the test with T-47D breast, 1.06 µM. For the same compound, the TGI with ACHN renal was 18.6 µM; in the test on DU-145 prostate, 21.5 µM; in the test on SW-620 colon it was 4.19 µM; with OVCAR-3 ovarian, 16.2 µM; in the test with TK-10 renal, 20.1 µM; in the test with KM12 colon it was 12.4 µM. The TGI with NCI/ADR-RES ovarian worked out at 24.2 µM; in the test with NCI-H226 lung it was 18.2 µM; with HOP-62 NSCLC, 4.94 µM; in the test on T-47D breast it was 15.2 µM.
Turning to `O=C(NOCCO)c1ccc2cncn2c1Nc1ccc(I)cc1F`, the GI50 was 0.3 µM with ACHN renal; > 10 µM and 19.9 µM in the test with DU-145 prostate; 0.00386 µM and < 0.01 µM in the test with SW-620 colon; > 10 µM and 32.7 µM with OVCAR-3 ovarian; 0.00874 µM and < 0.0129 µM in the test with TK-10 renal; 0.0268 µM and 0.018 µM with KM12 colon. Further, the GI50 was > 10 µM and 29.4 µM in the test with NCI/ADR-RES ovarian; 4.86 µM and 7.37 µM with NCI-H226 lung; 0.0159 µM and < 0.0182 µM in the test on HOP-62 NSCLC; > 10 µM and 51.1 µM in the test on T-47D breast. In addition, the TGI with ACHN renal, in the test with DU-145 prostate, in the test with SW-620 colon, with OVCAR-3 ovarian, with TK-10 renal and in the test on KM12 colon was greater than 100 µM in each case. In addition, the concentration for total growth inhibition (TGI) in the test on NCI/ADR-RES ovarian is greater than 100 µM; in the test with NCI-H226 lung, greater than 100 µM; with HOP-62 NSCLC, greater than 71.4 µM; with T-47D breast, greater than 100 µM.
`COc1cc(C(=O)/C=C/c2c[nH]c3ccccc23)cc(OC)c1OC`: the GI50 is 0.0509 µM in the test with ACHN renal; 0.0296 µM with DU-145 prostate; less than 0.0123 µM with SW-620 colon; less than 0.012 µM in the test on OVCAR-3 ovarian; 0.188 µM in the test on TK-10 renal; 0.0217 µM in the test with KM12 colon. The concentration for 50% growth inhibition (GI50) in the test on NCI/ADR-RES ovarian was less than 0.0144 µM; with NCI-H226 lung, 0.397 µM; in the test on HOP-62 NSCLC it was 0.0212 µM; in the test with T-47D breast, 0.0393 µM. Further, the TGI was 16.7 µM in the test with ACHN renal; 30 µM in the test on DU-145 prostate; greater than 100 µM in the test on SW-620 colon; 0.0488 µM in the test on OVCAR-3 ovarian; 9.56 µM with TK-10 renal; 11.2 µM in the test on KM12 colon. Moreover, the TGI in the test on NCI/ADR-RES ovarian was found to be 33.6 µM; in the test on NCI-H226 lung, 26.8 µM; in the test with HOP-62 NSCLC, 29 µM; in the test on T-47D breast it was 18.4 µM.
Regarding `NS(=O)(=O)c1cccc(Nc2cc(-c3ccc(F)cc3)[nH]n2)c1`, the GI50 with ACHN renal was 13.2 µM; in the test with DU-145 prostate, 16.2 µM; with SW-620 colon it was greater than 23.2 µM; with OVCAR-3 ovarian it was 19.5 µM; in the test with TK-10 renal, 20.3 µM; with KM12 colon, 8.22 µM. Moreover, the GI50 in the test on NCI/ADR-RES ovarian was greater than 25 µM; with NCI-H226 lung, greater than 25 µM; in the test on HOP-62 NSCLC, greater than 25 µM; in the test on T-47D breast it was greater than 23.3 µM. Besides, the TGI in the test on ACHN renal, in the test on DU-145 prostate, in the test with SW-620 colon, in the test with OVCAR-3 ovarian, with TK-10 renal and in the test with KM12 colon was greater than 25 µM each time. In addition, the TGI in the test on NCI/ADR-RES ovarian, with NCI-H226 lung, in the test on HOP-62 NSCLC and in the test with T-47D breast was greater than 25 µM each time.
With `CCOC(=O)Nc1cc2c(c(N)n1)N=C(c1ccc(Cl)cc1Cl)CN2`, the TGI in the test on ACHN renal stood at 20.8 µM; in the test on DU-145 prostate it was 13.3 µM; with SW-620 colon, 30.4 µM; in the test on OVCAR-3 ovarian it was 0.0133 µM; with TK-10 renal it was 35.4 µM; in the test with KM12 colon, 2.83 µM. Moreover, the concentration for total growth inhibition (TGI) in the test with NCI/ADR-RES ovarian amounted to 18.9 µM; in the test with NCI-H226 lung, 18 µM; with HOP-62 NSCLC, 19.8 µM; in the test with T-47D breast it was 43.1 µM.
With `CC1=C(\C=C/C(C)=C/C=C/C(C)=C/C=C/C=C(C)\C=C\C=C(C)/C=C/C2=C(C)CCCC2(C)C)C(C)(C)CCC1`, the TGI in the test on ACHN renal, in the test with DU-145 prostate, in the test on SW-620 colon, in the test on OVCAR-3 ovarian, in the test with TK-10 renal and in the test with KM12 colon was greater than 100 µM throughout. For the same compound, the TGI with NCI/ADR-RES ovarian, with NCI-H226 lung, with HOP-62 NSCLC and with T-47D breast was greater than 100 µM throughout.
